Measured values taken from the supplement of paper PMC10307832.

Legend:
Test in all cases: relative viability (nuclei count vs DMSO), 5 days (fraction); higher = more cells survive
RAF265 + AZD7762 = compound: Cn1c(Nc2ccc(C(F)(F)F)cc2)nc2cc(Oc3ccnc(-c4ncc(C(F)(F)F)[nH]4)c3)ccc21 [RAF265] + NC(=O)Nc1cc(-c2cccc(F)c2)sc1C(=O)N[C@H]1CCCNC1 [AZD7762] (partner 0.2 µM)
Summary of the method: (§1)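 Lung cancer cell lines in 1536-well plates were dosed by pin tool the day after seeding, either with one drug alone or with a fixed anchor-drug dose plus five library-drug doses (not always all listed) in √10 steps. After 5 days, cells were fixed and their nuclei stained in one step (final 0.05% Triton X-100, 1% formaldehyde, 1 ug/ml Hoechst), then counted on 4× images. Relative viability is the nuclei count in treated wells divided by that in vehicle wells. Values are medians of duplicate plates.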

[1] = compound: Cc1ccc(-n2nc(C(C)(C)C)cc2NC(=O)Nc2ccc(OCCN3CCOCC3)c3ccccc23)cc1 [Doramapimod] + CC(=O)c1c(C)c2cnc(Nc3ccc(N4CCNCC4)cn3)nc2n(C2CCCC2)c1=O [Palbociclib] (partner 0.5 µM)
Summary of the method: as §1

IPA-3 + Dasatinib = compound: C1=CC=C2C(=C1)C=CC(=C2SSC3=C(C=CC4=CC=CC=C43)O)O [IPA-3] + Cc1nc(Nc2ncc(C(=O)Nc3c(C)cccc3Cl)s2)cc(N2CCN(CCO)CC2)n1 [Dasatinib] (partner 0.075 µM)
Summary of the method: as §1

Doramapimod + Navitoclax = compound: Cc1ccc(-n2nc(C(C)(C)C)cc2NC(=O)Nc2ccc(OCCN3CCOCC3)c3ccccc23)cc1 [Doramapimod] + CC1(C)CCC(c2ccc(Cl)cc2)=C(CN2CCN(c3ccc(C(=O)NS(=O)(=O)c4ccc(N[C@H](CCN5CCOCC5)CSc5ccccc5)c(S(=O)(=O)C(F)(F)F)c4)cc3)CC2)C1 [Navitoclax] (partner 0.5 µM)
Summary of the method: as §1

Row | Cell Line | relative viability (RAF265 + AZD7762; first compound 0.01 µM) | relative viability (RAF265 + AZD7762; first compound 0.03162 µM) | relative viability (RAF265 + AZD7762; first compound 0.1 µM) | relative viability (RAF265 + AZD7762; first compound 0.3162 µM) | relative viability (RAF265 + AZD7762; first compound 1 µM) | relative viability ([1]; first compound 0.02 µM) | relative viability ([1]; first compound 0.06325 µM) | relative viability ([1]; first compound 0.2 µM) | relative viability ([1]; first compound 0.6325 µM) | relative viability ([1]; first compound 2 µM) | relative viability (IPA-3 + Dasatinib; first compound 0.2 µM) | relative viability (IPA-3 + Dasatinib; first compound 0.6325 µM) | relative viability (IPA-3 + Dasatinib; first compound 2 µM) | relative viability (IPA-3 + Dasatinib; first compound 6.325 µM) | relative viability (IPA-3 + Dasatinib; first compound 20 µM) | relative viability (Doramapimod + Navitoclax; first compound 0.02 µM) | relative viability (Doramapimod + Navitoclax; first compound 0.06325 µM) | relative viability (Doramapimod + Navitoclax; first compound 0.2 µM) | relative viability (Doramapimod + Navitoclax; first compound 0.6325 µM) | relative viability (Doramapimod + Navitoclax; first compound 2 µM)
1 | 201T | 0.596 | 0.578 | 0.653 | 0.668 | 0.783 | 0.363 | 0.351 | 0.321 | 0.368 | 0.336 | 0.576 | 0.57 | 0.604 | 0.616 | 0.65 | 1.27 | 1.24 | 1.2 | 1.29 | 1.28
2 | A549 | – | – | – | – | – | – | – | – | – | – | – | – | – | – | – | 1.18 | 1.22 | 1.39 | 1.34 | 1.1
3 | A-427 | 0.798 | 0.746 | 0.641 | 0.448 | 0.247 | 0.488 | 0.521 | 0.52 | – | 0.54 | 0.682 | 0.632 | 0.634 | 0.713 | 0.72 | 1.02 | 1.01 | 1.02 | – | 1.08
4 | ABC-1 | 0.993 | 0.771 | 0.798 | 1.06 | 0.47 | 0.642 | 0.732 | 0.683 | 0.845 | 0.817 | 0.666 | 0.477 | 0.536 | 0.708 | 0.58 | – | – | – | – | –
5 | BEN | 0.675 | 0.805 | 0.837 | 0.674 | 0.661 | 0.462 | 0.459 | 0.504 | 0.387 | 0.541 | 0.471 | 0.35 | 0.323 | 0.342 | 0.283 | 0.0531 | 0.0454 | 0.0875 | 0.0584 | 0.0743
6 | CAL-12T | 0.56 | 0.631 | 0.678 | 0.598 | 0.504 | 0.413 | 0.45 | 0.421 | 0.434 | 0.511 | 0.627 | 0.418 | 0.379 | 0.409 | 0.524 | 1.14 | 1.14 | 1.14 | 1.48 | 1.03
7 | COR-L23 | – | – | – | – | – | 0.29 | 0.317 | 0.298 | 0.338 | 0.283 | 0.679 | 0.506 | 0.503 | 0.46 | 0.125 | 1.1 | 0.989 | 1 | 1.07 | 1.02
8 | COR-L 105 | – | – | – | – | – | 0.398 | 0.421 | 0.404 | 0.449 | 0.351 | 0.401 | 0.34 | 0.305 | 0.332 | 0.272 | 0.685 | 0.713 | 0.811 | 0.81 | 0.889
9 | Calu-6 | – | – | – | – | – | – | – | – | – | – | – | – | – | – | – | 0.885 | 0.894 | 0.899 | 0.92 | 0.846
10 | ChaGo-K-1 | 0.708 | 0.877 | 0.812 | 0.767 | 0.709 | 0.928 | 0.906 | 0.918 | 0.942 | 0.823 | 0.699 | 0.54 | 0.526 | 0.621 | 0.614 | 1.07 | 1.25 | 1.24 | – | 1.01
11 | EBC-1 | – | – | – | – | – | – | – | – | – | – | – | – | – | – | – | 0.428 | 0.335 | 0.332 | 0.417 | 0.372
12 | EKVX | 0.685 | 0.777 | 0.706 | 0.412 | 0.298 | 0.427 | 0.351 | 0.366 | 0.337 | 0.342 | 0.538 | 0.544 | 0.599 | 0.537 | 0.486 | 0.677 | 0.915 | 0.936 | 0.895 | 0.934
13 | EMC-BAC-2 | 1.09 | 1.03 | 0.675 | 0.724 | 0.486 | 0.512 | 0.501 | 0.508 | 0.503 | 0.465 | 0.309 | 0.458 | 0.302 | 0.311 | 0.292 | 1.18 | 1.17 | 1.16 | 1.25 | 0.99
14 | EPLC-272H | 0.213 | 0.181 | 0.223 | 0.161 | 0.15 | 0.356 | 0.342 | 0.345 | – | 0.286 | 0.337 | 0.325 | 0.413 | 0.411 | 0.543 | 1.14 | 0.943 | 1.12 | 1.23 | 0.978
15 | H3255 | 0.931 | 1.01 | 0.877 | – | 0.623 | 0.334 | 0.302 | 0.318 | 0.292 | 0.345 | 0.387 | 0.249 | 0.428 | 0.335 | 0.284 | 0.531 | 0.586 | 0.553 | 0.636 | 0.479
16 | HARA | 0.315 | 0.128 | 0.303 | 0.419 | 0.221 | 0.232 | 0.275 | 0.262 | 0.297 | 0.264 | 0.264 | 0.245 | 0.286 | 0.348 | 0.277 | 1.1 | 1.13 | 1.12 | 1.11 | 1.07
17 | HCC-15 | 1.31 | 1.17 | 1.12 | 1.27 | 1.18 | 0.548 | 0.772 | 0.755 | 0.686 | 0.525 | 0.682 | 0.605 | 0.548 | 0.596 | 0.471 | 0.657 | 0.629 | 0.726 | 0.691 | 0.634
18 | HCC-44 | 1 | 0.985 | 1.03 | 1 | 0.955 | 0.96 | 1 | 0.97 | 0.904 | 0.891 | – | – | – | – | – | 1 | 0.986 | 0.986 | 1.14 | 0.979
19 | HCC-78 | 0.634 | 0.863 | 0.731 | 0.269 | 0.567 | 0.469 | 0.511 | 0.505 | 0.509 | 0.568 | 0.43 | 0.359 | 0.462 | 0.439 | 0.427 | 0.834 | 0.81 | 0.81 | 0.874 | 0.777
